Test results published in PubChem BioAssay (NCI).
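Method: 48-hour compound exposure of cells in 96-well plates, five concentrations, linear interpolation of endpoints. TGI: concentration producing complete growth inhibition.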

How the values were obtained:
Experiment in all cases: DTP human tumour cell line panel, 48 h
IGROV1 ovarian = tested on: IGROV1 ovarian
SF-268 CNS = tested on: SF-268 CNS
UACC-257 melanoma = tested on: UACC-257 melanoma
SK-OV-3 ovarian = tested on: SK-OV-3 ovarian
KM12 colon = tested on: KM12 colon
A498 renal = tested on: A498 renal
CAKI-1 renal = tested on: CAKI-1 renal
OVCAR-8 ovarian = tested on: OVCAR-8 ovarian
UO-31 renal = tested on: UO-31 renal
HOP-62 NSCLC = tested on: HOP-62 NSCLC
RXF 393 renal = tested on: RXF 393 renal
HT29 colon = tested on: HT29 colon
SK-MEL-5 melanoma = tested on: SK-MEL-5 melanoma
OVCAR-4 ovarian = tested on: OVCAR-4 ovarian
DLD-1 colon = tested on: DLD-1 colon
SNB-19 CNS = tested on: SNB-19 CNS
HL-60(TB) leukemia = tested on: HL-60(TB) leukemia
OVCAR-5 ovarian = tested on: OVCAR-5 ovarian
LOX IMVI melanoma = tested on: LOX IMVI melanoma
U251 CNS = tested on: U251 CNS
HOP-92 NSCLC = tested on: HOP-92 NSCLC
UACC-62 melanoma = tested on: UACC-62 melanoma
NCI-H522 lung = tested on: NCI-H522 lung
COLO 205 colon = tested on: COLO 205 colon
A549 NSCLC = tested on: A549 NSCLC
CCRF-CEM leukemia = tested on: CCRF-CEM leukemia
SK-MEL-2 melanoma = tested on: SK-MEL-2 melanoma
HCT-116 colon = tested on: HCT-116 colon
KM20L2 colon = tested on: KM20L2 colon
ACHN renal = tested on: ACHN renal
MOLT-4 leukemia = tested on: MOLT-4 leukemia
TK-10 renal = tested on: TK-10 renal
K-562 leukemia = tested on: K-562 leukemia
DMS 114 small cell lung = tested on: DMS 114 small cell lung
DMS 273 small cell lung = tested on: DMS 273 small cell lung
HCT-15 colon = tested on: HCT-15 colon
HCC-2998 colon = tested on: HCC-2998 colon
NCI-H460 lung = tested on: NCI-H460 lung
EKVX NSCLC = tested on: EKVX NSCLC
786-0 renal = tested on: 786-0 renal
SF-539 CNS = tested on: SF-539 CNS
NCI-H23 lung = tested on: NCI-H23 lung
SF-295 CNS = tested on: SF-295 CNS
M19-MEL melanoma = tested on: M19-MEL melanoma
SNB-75 CNS = tested on: SNB-75 CNS
SN12C renal = tested on: SN12C renal
M14 melanoma = tested on: M14 melanoma
SR leukemia = tested on: SR leukemia
SK-MEL-28 melanoma = tested on: SK-MEL-28 melanoma
LXFL 529 NSCLC = tested on: LXFL 529 NSCLC
SW-620 colon = tested on: SW-620 colon
SNB-78 CNS = tested on: SNB-78 CNS
RPMI-8226 leukemia = tested on: RPMI-8226 leukemia
MALME-3M melanoma = tested on: MALME-3M melanoma
OVCAR-3 ovarian = tested on: OVCAR-3 ovarian
NCI-H226 lung = tested on: NCI-H226 lung

## CCN(CC)CC(=O)Nc1ccc2c(c1)C(=O)c1ccc(NC(=O)CN(CC)CC)cc1C2=O
IGROV1 ovarian
  TGI: 51.6 µM
SF-268 CNS
  TGI: 82.7 µM
UACC-257 melanoma
  TGI: 97.4 µM
SK-OV-3 ovarian
  TGI: 88 µM
KM12 colon
  TGI: 70 µM
A498 renal
  TGI: > 100 µM
CAKI-1 renal
  TGI: > 100 µM
OVCAR-8 ovarian
  TGI: 94.9 µM
UO-31 renal
  TGI: > 100 µM
HOP-62 NSCLC
  TGI: 74.1 µM
RXF 393 renal
  TGI: 29.7 µM
HT29 colon
  TGI: > 100 µM
SK-MEL-5 melanoma
  TGI: 48.9 µM
OVCAR-4 ovarian
  TGI: > 100 µM
DLD-1 colon
  TGI: > 100 µM
SNB-19 CNS
  TGI: 81.3 µM
HL-60(TB) leukemia
  TGI: 44.5 µM
OVCAR-5 ovarian
  TGI: > 100 µM
LOX IMVI melanoma
  TGI: 34.5 µM
U251 CNS
  TGI: 47 µM
HOP-92 NSCLC
  TGI: > 100 µM
UACC-62 melanoma
  TGI: > 100 µM
NCI-H522 lung
  TGI: 43.2 µM
COLO 205 colon
  TGI: 54.1 µM
A549 NSCLC
  TGI: > 100 µM
CCRF-CEM leukemia
  TGI: > 100 µM
SK-MEL-2 melanoma
  TGI: > 100 µM
HCT-116 colon
  TGI: 30.5 µM
KM20L2 colon
  TGI: > 100 µM
ACHN renal
  TGI: 73.3 µM
MOLT-4 leukemia
  TGI: 81.5 µM
TK-10 renal
  TGI: > 100 µM
K-562 leukemia
  TGI: 67.8 µM
DMS 114 small cell lung
  TGI: 37.4 µM
DMS 273 small cell lung
  TGI: > 100 µM
HCT-15 colon
  TGI: > 100 µM
HCC-2998 colon
  TGI: > 100 µM
NCI-H460 lung
  TGI: 31.5 µM
EKVX NSCLC
  TGI: > 100 µM
786-0 renal
  TGI: 47.2 µM
SF-539 CNS
  TGI: 30.9 µM
NCI-H23 lung
  TGI: > 100 µM
SF-295 CNS
  TGI: > 100 µM
M19-MEL melanoma
  TGI: > 100 µM
SNB-75 CNS
  TGI: 89.6 µM
SN12C renal
  TGI: > 100 µM
M14 melanoma
  TGI: 36.8 µM
SR leukemia
  TGI: 41.7 µM
SK-MEL-28 melanoma
  TGI: > 100 µM
LXFL 529 NSCLC
  TGI: 49 µM
SW-620 colon
  TGI: 69.8 µM
SNB-78 CNS
  TGI: > 100 µM
RPMI-8226 leukemia
  TGI: > 100 µM

## Cc1cnc(SCCN2CCN(C)CC2)nc1-c1cc2ccccc2s1
UACC-257 melanoma
  TGI: 23.5 µM
SK-OV-3 ovarian
  TGI: 13.8 µM
KM12 colon
  TGI: 32.2 µM
A498 renal
  TGI: 29.8 µM
CAKI-1 renal
  TGI: 16.4 µM
OVCAR-8 ovarian
  TGI: 25.8 µM
MALME-3M melanoma
  TGI: 31.6 µM
UO-31 renal
  TGI: 20.8 µM
HOP-62 NSCLC
  TGI: 4.81 µM
RXF 393 renal
  TGI: 22.7 µM
HT29 colon
  TGI: 18.7 µM
SK-MEL-5 melanoma
  TGI: 14.6 µM
OVCAR-3 ovarian
  TGI: 24.6 µM
OVCAR-4 ovarian
  TGI: 34.1 µM
DLD-1 colon
  TGI: 25.4 µM
LOX IMVI melanoma
  TGI: 18.6 µM
U251 CNS
  TGI: 21.7 µM
HOP-92 NSCLC
  TGI: 18.3 µM
UACC-62 melanoma
  TGI: 32.2 µM
NCI-H522 lung
  TGI: 29.6 µM
COLO 205 colon
  TGI: 29.2 µM
A549 NSCLC
  TGI: 16 µM
CCRF-CEM leukemia
  TGI: 14.2 µM
SK-MEL-2 melanoma
  TGI: 30.9 µM
HCT-116 colon
  TGI: 26.8 µM
NCI-H226 lung
  TGI: 25.3 µM
MOLT-4 leukemia
  TGI: 7.5 µM
TK-10 renal
  TGI: 33.1 µM
DMS 114 small cell lung
  TGI: 20.5 µM
DMS 273 small cell lung
  TGI: 18.1 µM
HCT-15 colon
  TGI: 24.7 µM
HCC-2998 colon
  TGI: 26.9 µM
NCI-H460 lung
  TGI: 14.6 µM
786-0 renal
  TGI: 24.3 µM
SF-539 CNS
  TGI: 25.1 µM
NCI-H23 lung
  TGI: 34.3 µM
SF-295 CNS
  TGI: 21.2 µM
SNB-75 CNS
  TGI: 24.6 µM
SN12C renal
  TGI: 21.3 µM
M14 melanoma
  TGI: 27.4 µM
SR leukemia
  TGI: 8.46 µM
SK-MEL-28 melanoma
  TGI: 32.7 µM
LXFL 529 NSCLC
  TGI: 27 µM
SW-620 colon
  TGI: 24.7 µM
SNB-78 CNS
  TGI: 32.5 µM
